Measurements as given in PubChem BioAssay AID1645862 (Buhrlage Lab, Dana-Farber Cancer Institute and Novartis …, 2021).
pIC50: −log10 of the molar value. Calls of active or inactive are those of the source. How the calls were made is not given here.

Molecular target: Ubiquitin carboxyl-terminal hydrolase 8 (Homo sapiens) (UniProt P40818)
Test: Ubiquitin-specific protease 8 inhibitors, concentration-effect, biochemical, validation of initial actives (AID 1645862);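 further: potency reflects inhibition of USP8 cleavage of a ubiquitin rhodamine substrate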
Details: recombinant USP8 deubiquitinase activity assay

Sequence of Ubiquitin carboxyl-terminal hydrolase 8 (Homo sapiens) (P40818 whole entry, looked up): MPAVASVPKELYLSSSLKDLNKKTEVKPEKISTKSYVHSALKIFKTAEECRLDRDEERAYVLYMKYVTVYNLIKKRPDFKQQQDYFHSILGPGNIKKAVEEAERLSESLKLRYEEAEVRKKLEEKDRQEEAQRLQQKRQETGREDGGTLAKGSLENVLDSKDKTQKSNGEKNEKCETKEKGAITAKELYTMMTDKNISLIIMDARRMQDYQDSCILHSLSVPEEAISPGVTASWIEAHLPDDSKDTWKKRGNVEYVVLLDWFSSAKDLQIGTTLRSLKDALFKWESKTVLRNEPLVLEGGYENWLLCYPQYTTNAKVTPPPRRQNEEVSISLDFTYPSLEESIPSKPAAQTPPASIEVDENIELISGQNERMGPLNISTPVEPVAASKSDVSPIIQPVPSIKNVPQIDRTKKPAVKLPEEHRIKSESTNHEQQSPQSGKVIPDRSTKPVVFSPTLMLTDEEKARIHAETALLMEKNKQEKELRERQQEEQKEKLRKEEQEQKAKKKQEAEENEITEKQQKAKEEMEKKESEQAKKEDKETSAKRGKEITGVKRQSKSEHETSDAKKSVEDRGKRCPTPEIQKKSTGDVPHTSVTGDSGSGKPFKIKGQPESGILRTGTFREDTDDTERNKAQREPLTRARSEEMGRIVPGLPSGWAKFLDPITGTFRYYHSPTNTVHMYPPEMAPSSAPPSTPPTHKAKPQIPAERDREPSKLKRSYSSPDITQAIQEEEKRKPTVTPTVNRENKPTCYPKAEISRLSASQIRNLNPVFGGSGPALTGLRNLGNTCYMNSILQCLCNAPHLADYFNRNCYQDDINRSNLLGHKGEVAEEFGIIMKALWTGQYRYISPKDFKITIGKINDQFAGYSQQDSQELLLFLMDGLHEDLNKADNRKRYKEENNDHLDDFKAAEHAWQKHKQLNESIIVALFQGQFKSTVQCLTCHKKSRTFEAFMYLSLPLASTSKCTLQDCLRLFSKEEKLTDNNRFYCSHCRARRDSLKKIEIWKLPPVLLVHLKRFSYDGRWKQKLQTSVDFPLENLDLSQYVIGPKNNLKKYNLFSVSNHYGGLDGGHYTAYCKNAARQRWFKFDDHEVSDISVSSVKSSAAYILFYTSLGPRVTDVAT

SMILES | IC50 | pIC50
COc1ccc(NC2c3ccccc3C(=O)N2c2ccccn2)cc1 (configuration not stated) | > 40 µM (inactive) | –
O=C(c1ccccc1CN1CCOCC1)N1CCOCC2(C1)CN(c1ccc(F)cc1)C(=O)O2 (configuration not stated) | > 40 µM (inactive) | –
O=C(/C=C/c1c(F)cccc1Cl)N1CCc2ccccc2C1 | – | 4.66
COc1ccc(CNC(=O)Nc2cccc3ccccc23)cc1 | > 40 µM (inactive) | –
COc1cccc(NC(=O)CCc2nnc3n(CCCOC(C)C)c(=O)c4ccccc4n23)c1 | > 40 µM (inactive) | –
COC(=O)c1cc2c(ccn2-c2ccc(F)cc2)n1CC(=O)NC1CCCCC1 | > 40 µM (inactive) | –
Cc1ccc(NC(=O)Nc2ccc(C)n(CC(=O)Nc3cc(C)ccc3C)c2=O)cc1 | > 40 µM (inactive) | –
CCC/C=C\C#CC/C=C\CCCCCCCC(=O)O | – | 5.61
O=C(CCCCn1c(=O)[nH]c2ccccc2c1=O)Nc1cccc(Cl)c1 | > 40 µM (inactive) | –
Cc1ccc(-n2nnnc2-c2cnc3cc(Cl)ccc3c2N)cc1 | > 40 µM (inactive) | –
O=C(c1ccccn1)N1CCC2(CC1)CC1(CO2)Nc2ccccc2-n2cccc21 (configuration not stated) | – | 4.64
O=C(Nc1ccc(F)cc1)Nc1ccccc1OCc1cc(=O)n2ccccc2n1 | > 40 µM (inactive) | –
Cc1c(OCC(=O)NCc2ccccc2Cl)ccc2c3c(c(=O)oc12)CCC3 | > 40 µM (inactive) | –
Cc1noc(-c2cc(=O)n(CC(=O)NCc3ccccc3F)c3ccccc23)n1 | > 40 µM (inactive) | –
O=C(Nc1cccnc1)C1c2ccccc2C(=O)N(c2ccccc2)C12CCCCC2 (configuration not stated) | > 40 µM (inactive) | –
O=C(COc1ccc(N2CC(C(=O)NCc3ccc4c(c3)OCO4)CC2=O)cc1)Nc1ccc(Cl)cc1 (configuration not stated) | > 40 µM (inactive) | –
CC(NC(=O)c1ccccc1)c1nc2ccccc2n1CC(=O)Nc1ccc(OC(F)(F)F)cc1 (configuration not stated) | > 40 µM (inactive) | –
CCc1ccc(S(=O)(=O)Nc2ccc(-c3nnc(-c4ccccc4)o3)cc2)cc1 | > 40 µM (inactive) | –
COc1ccc(NC(=O)c2[nH]nc3c2COc2ccccc2-3)c(OC)c1 | > 40 µM (inactive) | –
COC(=O)c1ccc(Nc2cc(C)nc3cc(C(F)(F)F)ccc23)cc1 | > 40 µM (inactive) | –
CC(=O)c1ccc(N2CCN(S(=O)(=O)c3cc4c(cc3C)NC(=O)CO4)CC2)cc1 | > 40 µM (inactive) | –
COc1ccc(CC(=O)OCC(=O)N2c3ccccc3NC(=O)C2(C)C)cc1 | > 40 µM (inactive) | –
Cc1cc(=O)n(C)c2c(O)c3c(cc12)c(C)cc(=O)n3C | – | 6.59

SMILES | IC50 | pIC50
Cc1cccc(C)c1NC(=O)Cn1c(=O)n(CCCCC(=O)NCc2ccc3c(c2)OCO3)c(=O)c2ccccc21 | > 40 µM (inactive) | –
COc1ccc2c(c1)CCc1c-2n[nH]c1C(=O)Nc1cc(C)on1 | > 40 µM (inactive) | –
COc1ccccc1CNC(=O)CCCCn1c(=O)c2ccccc2n(CC(=O)Nc2ccc(C)cc2C)c1=O | > 40 µM (inactive) | –
Nc1ccc2oc(-c3cccc(-c4nc5cc(N)ccc5o4)n3)nc2c1 | – | 4.48
O=C1CC(O)C(O)c2cccc(O)c21 (configuration not stated) | > 40 µM (inactive) | –
CCCC(O)CCCCCCCc1cc(O)cc(O)c1C(=O)OC(CCC)CCCCCCCc1cc(O)cc(O)c1 (configuration not stated) | > 40 µM (inactive) | –
Cc1ccc(OCc2nc3ccccc3n2CC(=O)Nc2ccc(C(F)(F)F)cc2)cc1 | > 40 µM (inactive) | –
Brc1ccc(Nc2nc(-c3ccccn3)nc3ccccc23)cc1 | – | 4.78
CSc1nc(N)c2c(n1)N[C@H]1OC[C@H](O)[C@H](O)[C@H]1N2 | > 40 µM (inactive) | –
CCCCCCCCCC(CCCCCCCCCC(=O)O)O[C@H]1O[C@@H](COC(C)=O)[C@H](O)[C@@H](OC(=O)CC(=O)O)[C@H]1O (some centres not stated) | > 40 µM (inactive) | –
Cc1c(-c2nsc(NC(=O)c3ccc(Cl)cc3)n2)nnn1-c1ccccc1F | > 40 µM (inactive) | –
CCOC(=O)C1CCN(Cc2cc(=O)oc3cc(O)c(O)cc23)CC1 | – | 5.89
O=C(COc1ccccc1-c1nnc(-c2ccccc2)o1)NCCc1ccco1 | – | 4.54
Cc1ccc(-c2nn(C(C)(C)C)c3ncnc(NS(=O)(=O)c4ccc(Cl)cc4)c23)cc1 | > 40 µM (inactive) | –
O=S(=O)(Nc1cccc(O)c1)c1ccc2oc3ccc(S(=O)(=O)Nc4cccc(O)c4)cc3c2c1 | > 40 µM (inactive) | –
CCOc1ccc(-c2noc(-c3nn(-c4cccc(OC)c4)ccc3=O)n2)cc1 | – | 4.47
Cc1c(C(=O)OCC(=O)Nc2ccc3c(c2)OCO3)oc2ccc(Br)cc12 | > 40 µM (inactive) | –
O=C(Nc1nc2c(ccc3ccccc32)s1)c1cccc(Br)c1 | > 40 µM (inactive) | –
N#Cc1cccc(NC(=O)COC(=O)c2n[nH]c3ccccc23)c1 | > 40 µM (inactive) | –
COc1ccc(NC(=O)CC(=O)c2ccc([N+](=O)[O-])cc2)cc1S(=O)(=O)Nc1ccc(Cl)cc1 | > 40 µM (inactive) | –
CCOc1ccc(-n2c(=O)c3sccc3n(CC(=O)Nc3cccc(C)c3)c2=O)cc1 | > 40 µM (inactive) | –
Cc1cccc2nc(CSc3nc4ccc([N+](=O)[O-])cc4[nH]3)cn12 | > 40 µM (inactive) | –
Nc1ccc(C(=O)OCC(=O)NC2CCCc3ccccc32)cc1[N+](=O)[O-] (configuration not stated) | > 40 µM (inactive) | –

SMILES | IC50 | pIC50
O=C(COc1ccccc1)Nc1ccc(-c2nc3cnccc3o2)c(O)c1 | > 40 µM (inactive) | –
COc1ccc(C2(c3nnc(C(C)Oc4ccc(F)cc4)o3)CCOCC2)cc1 (configuration not stated) | > 40 µM (inactive) | –
O=c1c(S(=O)(=O)c2cc(F)cc(F)c2)c[nH]c2cc(Cl)ccc12 | – | 4.59
COc1ccccc1Nc1ncc(C(=O)NCc2ccc(F)cc2)c2ccccc12 | > 40 µM (inactive) | –
O=C(CNS(=O)(=O)c1ccc(F)cc1)N1CCCC(c2nnc3ccccn23)C1 (configuration not stated) | > 40 µM (inactive) | –
O=C(NC1(O)C(=O)c2ccccc2C1=O)c1cccc2c1-c1ccccc1C2=O | – | 5.19
O=c1c2ccccc2nc(/C=C/c2ccco2)n1Cc1ccccc1 | > 40 µM (inactive) | –
O=[N+]([O-])c1ccc2c(c1)nc1n2CCN(Cc2ccco2)C1 | > 40 µM (inactive) | –
O=C(Nc1nc(-c2ccccc2)ns1)c1ccc2ncsc2c1 | > 40 µM (inactive) | –
COc1cccc2cc(C(=O)Nc3nc(-c4ccncc4)cs3)oc12 | – | 4.70
Cc1ccc(Cn2cc(-c3noc(C(=O)Nc4cc(F)ccc4F)n3)nn2)cc1 | – | 4.66
O=C(Nc1ccccc1-c1nc(-c2ccccn2)no1)c1cc(Cl)ccc1Cl | > 40 µM (inactive) | –
CC(NC(=O)c1ccccc1)c1nc2ccccc2n1CC(=O)Nc1ccc2c(c1)OCO2 (configuration not stated) | > 40 µM (inactive) | –
CCn1cc2c(n1)c(=O)n(Cc1ccccc1)c(=O)n2CC(=O)Nc1ccc(C)cc1C | – | 4.61
N#Cc1ccc(NC(=O)Nc2cccn(Cc3ccccc3F)c2=O)cc1 | > 40 µM (inactive) | –
CC(C)c1ccc(NC(=O)COC(=O)c2ccc(NS(=O)(=O)c3ccc4c(c3)OCCO4)cc2)cc1 | > 40 µM (inactive) | –
Cc1ccc(-c2nc(NC(=O)COc3ccc(Cl)cc3)no2)cc1 | – | 5.04
CCOc1ccc2nc(NC(=O)c3ccc4ccccc4n3)sc2c1 | > 40 µM (inactive) | –
COc1ccc(C(NC(=O)c2nc3n(n2)-c2ccccc2S(=O)(=O)N3)C(C)C)cc1 (configuration not stated) | > 40 µM (inactive) | –
Cc1noc(-c2cc(=O)n(CC(=O)Nc3ccccc3Cl)c3ccccc23)n1 | > 40 µM (inactive) | –
O=C(Cn1cnc(-c2noc(-c3cccc(F)c3)n2)c1)Nc1ccccc1 | > 40 µM (inactive) | –
CCN(CC)C(=O)c1sc(NC(=O)/C=C/c2c(F)cccc2Cl)c(C#N)c1C | > 40 µM (inactive) | –
CSc1nc(NCc2ccccc2)c2sc3nc(N4CCOCC4)c4c(c3c2n1)CC(C)(C)OC4 | > 40 µM (inactive) | –

SMILES | IC50 | pIC50
O=C(NC1CCCCC1)C(c1ccc(F)cc1)N(C(=O)C1COc2ccccc2O1)c1ccc2c(c1)OCO2 (configuration not stated) | > 40 µM (inactive) | –
COc1ccc(NC(=O)Cn2c(=O)n(CCCC(=O)NCCc3ccc(OC)c(OC)c3)c(=O)c3ccccc32)cc1Cl | > 40 µM (inactive) | –
COc1ccccc1CNC(=O)CCCCn1c(=O)c2ccccc2n(Cc2ccc(C)cc2)c1=O | > 40 µM (inactive) | –
NC(=O)C[C@H](NC(=O)[C@H](Cc1ccccc1)n1c(=O)[nH]c2ccccc2c1=O)C(=O)N[C@@H](Cc1ccccc1)C(=O)O | > 40 µM (inactive) | –
Cc1cc(=O)n(CC(=O)Nc2ccccc2C)c(Nc2ccc(F)cc2)n1 | > 40 µM (inactive) | –
O=C(C1=CSCCO1)N1CCc2ccccc2C1 | > 40 µM (inactive) | –
CCNS(=O)(=O)c1ccc(-c2ccc(-n3cnnn3)cc2)cc1 | > 40 µM (inactive) | –
O=C(Nc1cccc(-c2nc3ncccc3o2)c1)c1ccc([N+](=O)[O-])cc1 | > 40 µM (inactive) | –
O=C(Cc1ccc(-n2c(=O)c3ccccc3n(Cc3cccc(F)c3)c2=O)cc1)NC1CCCC1 | > 40 µM (inactive) | –
CCCCN1CC(C(=O)Nc2ccc(C(=O)Nc3ccc(C(N)=O)cc3)cc2)CC1=O (configuration not stated) | > 40 µM (inactive) | –
Cc1c(C#N)c2ccccc2n1CC(=O)NCc1ccc2c(c1)OCO2 | > 40 µM (inactive) | –
Cc1ccc(-n2cc(C(=O)NCCCc3ccccc3)nn2)cc1 | > 40 µM (inactive) | –
COc1cccc(NC(=O)c2cn(-c3cc(N4CCCC4)ncn3)cn2)c1 | > 40 µM (inactive) | –
COc1cc(Cl)c(NC(=O)c2cc(-c3ccccn3)n[nH]2)c(OC)c1 | > 40 µM (inactive) | –
CCc1cccc(C)c1NC(=O)Cn1c(C(C)NC(=O)c2ccc(C)cc2)nc2ccccc21 (configuration not stated) | > 40 µM (inactive) | –
O=C(NCc1ccc2c(c1)OCO2)c1cn(-c2cccc(Cl)c2)nn1 | > 40 µM (inactive) | –
CC(C)c1nnc(NC(=O)C2CC(=O)N(CCc3ccc(F)cc3)C2)s1 (configuration not stated) | > 40 µM (inactive) | –
O=C(Cn1c(=O)n(Cc2ccc3c(c2)OCO3)c(=O)c2cccnc21)Nc1ccc(F)cc1 | > 40 µM (inactive) | –
COc1ccc(NC(=O)Nc2ccc(F)c(-c3nnc(-c4ccccc4)o3)c2)c(OC)c1 | > 40 µM (inactive) | –
COC(=O)c1ccc2c(=O)n(CCCCCC(=O)NCCC3=CCCCC3)c(=O)[nH]c2c1 | > 40 µM (inactive) | –
O=C(NCCc1nc2ccccc2n1Cc1ccccc1F)c1ccc(Cl)cc1 | > 40 µM (inactive) | –
Cc1ccc(N2CC(c3nc4ccccc4n3CCOc3cccc(C)c3)CC2=O)cc1 (configuration not stated) | > 40 µM (inactive) | –
Cc1ccccc1NC(=O)Cn1c(=O)n(-c2ccc(CC(=O)NCCc3ccccc3)cc2)c(=O)c2sccc21 | – | 4.43
